Data: patent US8946200B2, “Pharmaceutically active nanosuspensions” (Southwest Research Institute, priority 2006, dated 2015)

How the values were obtained:
[1] = Concentration of the nanosuspension and appearance / physical stability; format: physicochemical
Protocol: (§1) A solution of TCO (1 mg) in hexafluoroisopropanol (HFIP) (0.5 mL) was prepared and added slowly into a magnetically stirred into phosphate buffered saline (PBS) (2 mL) having a pH of 7.4. The mixture was stirred uncovered in a fume hood for up to 24 hours. FIG. 1 illustrates the particle size distribution of suspension of TCO in pH 7.4 PBS at 0.5 mg/mL concentration. […] The clear nanoparticle suspension was further concentrated in a vacuum oven to about 1.5 mg/mL.
A solution of TCO (1 mg) in hexafluoroisopropanol (0.5 mL) was prepared and added slowly into a magnetically stirred deionized water (2 mL). The mixture was stirred uncovered in a fume hood for 3 hours and further concentrated in a vacuum oven. The nanoparticle suspension in deionized water, however, could only be concentrated to about 0.6 mg/mL of concentration before growing micron-sized crystals.

[2] = Particle size distribution of the nanoparticle suspension (Beckman Coulter PCS Submicron Particle Size Analyzer); format: physicochemical; conditions: suspension of TCO in PBS pH 7.4, 0.5 mg/mL (FIG. 1)
Protocol: The particle size of the pharmaceutically active compound in the nanosuspension may be in the range of 100 nm to 1000 nm, including all values and increments therein, such as in the range of 250 nm to 1,000 nm, etc. Illustrated in FIG. 1 is an exemplary embodiment of a numerical particle size distribution of suspension of TCO in PBS having a pH of 7.4 and at a concentration of 0.5 mg/mL. […] In addition, the highest relative number percent of particles fall in the range of about 450-525 nm. Such particle size determination may be accomplished on a Beckman Coulter PCS Submicron Particle Size Analyzer. Accordingly, a nanosuspension herein may be understood as any liquid medium containing pharmaceutically active compounds having particles with a size of less than or equal to about 1000 nm.
as §1

In the case of triamcinolone [TCO], the appearance of nanosuspension ([1]; 1.0 mg/ML, precipitating 2 mg/0.5 mL TCO/HFIP into 2 mL PBS) was “cloudy solution”, the “concentration to which the clear nanoparticle suspension was further concentrated” value ([1]; PBS pH 7.4, 1 mg TCO/0.5 mL HFIP into 2 mL PBS, vacuum oven) was “about 1.5 mg/mL” and the “concentration reached before growing micron-sized crystals” value ([1]; deionized water, 1 mg TCO/0.5 mL HFIP into 2 mL water, vacuum oven) was “about 0.6 mg/mL”. The “particle size range with the highest relative number percent of particles” value [2] was 450-525 nm.
